The test system of data set [1] is acetylated microtubule in HEK293T cells. The data set is described as follows: Microtubule-Stabilizing Activity Assay (acetylated microtubule immunoblot, HEK293T, colchicine challenge). The format is cell-based. Conditions: 1 h pre-incubation, then colchicine 1 μM 3 h, relative to CNDR-51657 at 500 nM = 1.00; for Microtubule-Stabilizing Activity 50 nM: compound 50 nM; for Microtubule-Stabilizing Activity 500 nM: compound 500 nM. The gist of the method: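 HEK293T cells pretreated with compound or DMSO 1 h at 37 °C, then challenged with 1 μM colchicine for 3 h. Lysates (RIPA plus 1 μM trichostatin A) immunoblotted for acetylated and α-tubulin, quantified by densitometry. Activity expressed relative to CNDR-51657 at 500 nM set as 1.00.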
A general note: In western blotting, separated proteins are transferred to a membrane and probed.

Data set [2] in a line: Mouse Oral Pharmacokinetic Study. In kind it is in vivo. To be noted: male CD1 mice, oral gavage 10 mg/kg; for Kp at 4 h: brain/plasma, read-out: Cbrain/Cplasma; for AUC(0-t): read-out: AUC0-4h. The method, then: Healthy male CD1 mice were used as experimental animals. The drug was administered by oral gavage at a dose of 10 mg/kg with a dosing volume of 10 mL/kg. Drug preparation: 10 mg of the compound was placed in 10 mL of 50% PEG400 or 20% HPb-cyclodextrin, ground and shaken to ensure uniform distribution of the compound in small particle size, followed by oral administration. Blood samples were collected at 30 min, 1 h, 2 h, and 4 h post-dose, and brain tissues were sampled at 4 h. EDTA dipotassium salt was added to the blood samples, and plasma was obtained after centrifugation. The supernatant was analyzed after dilution with 5 volumes of acetonitrile and centrifugation. The brain tissue homogenate was diluted with 3.5 volumes of acetonitrile, centrifuged, and the supernatant was collected for analysis. The samples were then analyzed by liquid chromatography-tandem mass spectrometry (LC-MS/MS): the instrument was AB Sciex 3500; the mobile phase consisted of 0.1% formic acid in water (A)/0.1% formic acid in acetonitrile (B), with gradient elution.

Where [3] appears, read: mouse, brain tissue at 4 h, read-out: Cbrain@4h.
Setting [4] is: mouse, plasma at 4 h, read-out: Cpasma@4h.

From patent US20260226064A1, “POLYCYCLIC COMPOUND FOR TREATING NEUROLOGICAL DISEASES AND TUMORS” (Shanghai Institute of Organic Chemistry, Chinese Academy of …, priority 2023, published 2026) come the findings set out here.

By Cmax is commonly meant the maximum level reached in the sampled fluid or tissue. Usually Tmax stands for the time from dosing to the highest level.

Read-outs that look alike come from different tables or passages of the source.

Turning to `CNCCCOc1cc(F)c(-c2c(Cl)nc3ncnn3c2N[C@@H](C)C(F)(F)F)c(F)c1` [Cevipubulin, reference compound], in data set [1], the “Microtubule-Stabilizing Activity 50 nM” value stood at 1.65 and the “Microtubule-Stabilizing Activity 500 nM” value was found to be 1.68. Besides, the Cbrain/Cplasma in data set [2] (4 h) came out at 0.10. Also, the “Cbrain@4h” value in data set [2] (brain tissue at 4 h) stood at 38 ng/mL. For the same molecule, in data set [2] (plasma), the Cmax stood at 660 ng/mL and the time to peak (Tmax) was 54 min. Also, the “Cpasma@4h” value in data set [2] (plasma at 4 h) stood at 376 ng/mL. Further, the AUC0-4h in data set [2] (plasma, 0-4 h) was found to be 1826 ng·h/mL.
Take `CNC1CC2(C1)CC(Oc1cc(F)c(-c3c(Cl)nc4ncnn4c3N[C@@H](C)C(F)(F)F)c(F)c1)C2` (stereo partly drawn) [Example 11, (S)-5-Chloro-6-(2,6-difluoro-4-((6-(methylamino)spiro[3.3]heptan-2-yl)oxy)phenyl)-N-(1,1,1-trifluoropropan-2-yl)-[1,2,4]triazolo[1,5-a]pyrimidin-7-amine]: in data set [1], the “Microtubule-Stabilizing Activity 50 nM” value was determined as 0.60 and the “Microtubule-Stabilizing Activity 500 nM” value stood at 1.45. In data set [2] (mouse, 4 h), the Kp at 4 h worked out at 0.11. Moreover, the concentration at 4 h in data set [2] (setting [3]) came out at 252 ng/mL. Further, the concentration at 4 h in data set [2] (setting [4]) is 2200 ng/mL. Moreover, the AUC(0-t) in data set [2] (mouse, plasma, 0-4 h) came to 11200 ng·h/mL. In data set [2] (mouse, plasma, read-out: Cmax), the Cmax was found to be 4140 ng/mL. In addition, the Tmax in data set [2] (mouse, plasma, read-out: Tmax) was 45 min.
In the case of `C[C@H](Nc1c(-c2c(F)cc(OCC3[C@H]4CNC[C@@H]34)cc2F)c(Cl)nc2ncnn12)C(F)(F)F` (stereo partly drawn) [Example 24, 6-(4-(((1R,5S,6r)-3-Azabicyclo[3.1.0]hex-6-yl)methoxy)-2,6-difluorophenyl)-5-chloro-N—((S)-1,1,1-trifluoropropan-2-yl)-[1,2,4]triazolo[1,5-a]pyrimidin-7-amine], in data set [1], the “Microtubule-Stabilizing Activity 50 nM” value was 0.86 and the “Microtubule-Stabilizing Activity 500 nM” value came to 1.63. Besides, the Kp at 4 h in data set [2] (mouse, 4 h) was 0.17. Also, in data set [2] (setting [3]), the concentration at 4 h is 147 ng/mL. Moreover, the concentration at 4 h in data set [2] (setting [4]) amounted to 874 ng/mL. In addition, in data set [2] (mouse, plasma, 0-4 h), the AUC(0-t) came to 5960 ng·h/mL. Besides, the Cmax in data set [2] (mouse, plasma, read-out: Cmax) worked out at 2640 ng/mL. In addition, the Tmax in data set [2] (mouse, plasma, read-out: Tmax) turned out to be 45 min.
Consider `C[C@H](Nc1c(-c2c(F)cc(OCC3[C@H]4CN(C)C[C@@H]34)cc2F)c(Cl)nc2ncnn12)C(F)(F)F` (stereo partly drawn) [Example 25, 5-Chloro-6-(2,6-difluoro-4-(((1R,5S,6r)-3-methyl-3-azabicyclo[3.1.0]hexan-6-yl)methoxy)phenyl)-N—((S)-1,1,1-trifluoropropan-2-yl)-[1,2,4]triazolo[1,5-a]pyrimidin-7-amine], for which the “Microtubule-Stabilizing Activity 50 nM” value in data set [1] came out at 0.96. Besides, the “Microtubule-Stabilizing Activity 500 nM” value in data set [1] stood at 1.31. The Kp at 4 h in data set [2] (mouse, 4 h) was determined as 1.45. The concentration at 4 h in data set [2] (setting [3]) amounted to 198 ng/mL; in data set [2] (setting [4]), 137 ng/mL. In addition, the AUC(0-t) in data set [2] (mouse, plasma, 0-4 h) is 939 ng·h/mL. The Cmax in data set [2] (mouse, plasma, read-out: Cmax) amounted to 399 ng/mL. Moreover, the Tmax in data set [2] (mouse, plasma, read-out: Tmax) is 45 min.
On to `C[C@@H](Nc1c(-c2c(F)cc(C#C[C@@H]3[C@H]4CN(C)C[C@@H]34)cc2F)c(Cl)nc2ncnn12)C1CCC1` [Example 46, 5-Chloro-N—((R)-1-cyclobutylethyl)-6-(2,6-difluoro-4-(((1R,5S,6s)-3-methyl-3-azabicyclo[3.1.0]hexan-6-yl)ethynyl)phenyl)-[1,2,4]triazolo[1,5-a]pyrimidin-7-amine], for which, in data set [1], the “Microtubule-Stabilizing Activity 50 nM” value amounted to 1.76. The “Microtubule-Stabilizing Activity 500 nM” value in data set [1] is 1.44. In data set [2] (mouse, 4 h), the Kp at 4 h stood at 1.09. The concentration at 4 h worked out at 356 ng/mL in data set [2] (setting [3]) and 325 ng/mL in data set [2] (setting [4]). Besides, the AUC(0-t) in data set [2] (mouse, plasma, 0-4 h) was 1600 ng·h/mL. Moreover, the Cmax in data set [2] (mouse, plasma, read-out: Cmax) was determined as 572 ng/mL. For the same molecule, the Tmax in data set [2] (mouse, plasma, read-out: Tmax) was determined as 30 min.
As for `C[C@H](Nc1c(-c2c(F)cc(C#CC3[C@H]4CN(C)C[C@@H]34)cc2F)c(Cl)nc2ncnn12)C(F)(F)F` (stereo partly drawn) [Example 48, 5-Chloro-6-(2,6-difluoro-4-(((1R,5S,6s)-3-methyl-3-azabicyclo[3.1.0]hexan-6-yl)ethynyl)phenyl)-N—((S)-1,1,1-trifluoropropan-2-yl)-[1,2,4]triazolo[1,5-a]pyrimidin-7-amine], in data set [1], the “Microtubule-Stabilizing Activity 50 nM” value was 1.42. Also, the “Microtubule-Stabilizing Activity 500 nM” value in data set [1] is on record as 1.66. Moreover, in data set [2] (mouse, 4 h), the Kp at 4 h came out at 2.83. For the same molecule, the values for the concentration at 4 h in data set [2] (setting [3]) and in data set [2] (setting [4]) were 1020 ng/mL and 359 ng/mL, respectively. Also, in data set [2] (mouse, plasma, 0-4 h), the AUC(0-t) is 1810 ng·h/mL. Moreover, the highest concentration (Cmax) in data set [2] (mouse, plasma, read-out: Cmax) came to 591 ng/mL. Further, in data set [2] (mouse, plasma, read-out: Tmax), the Tmax was 45 min.
Take `C[C@@H](Nc1c(-c2c(F)cc(/C=C/[C@@H]3[C@H]4CNC[C@@H]34)cc2F)c(Cl)nc2ncnn12)C1CCC1.Cl` [Example 52, 6-(4-((E)-2-((1R,5S,6s)-3-Azabicyclo[3.1.0]hexan-6-yl)vinyl)-2,6-difluorophenyl)-5-chloro-N—((R)-1-cyclobutylethyl)-[1,2,4]triazolo[1,5-a]pyrimidin-7-amine hydrochloride]: in data set [1], the “Microtubule-Stabilizing Activity 50 nM” value was found to be 1.41 and the “Microtubule-Stabilizing Activity 500 nM” value is recorded as 1.69.
For `C[C@H](Nc1c(-c2c(F)cc(/C=C/[C@@H]3[C@H]4CNC[C@@H]34)cc2F)c(Cl)nc2ncnn12)C(F)(F)F.Cl` [Example 53, 6-(4-((E)-2-((1R,5S,6s)-3-Azabicyclo[3.1.0]hexan-6-yl)vinyl)-2,6-difluorophenyl)-5-chloro-N—((S)-1,1,1-trifluoropropan-2-yl)-[1,2,4]triazolo[1,5-a]pyrimidin-7-amine hydrochloride], in data set [1], the “Microtubule-Stabilizing Activity 50 nM” value is given as 1.23 and the “Microtubule-Stabilizing Activity 500 nM” value is reported as 1.38.
With `Cl.Fc1cc(/C=C/[C@@H]2[C@H]3CNC[C@@H]23)cc(F)c1-c1c(Cl)nc2ncnn2c1NCC(F)(F)F` [Example 54, 6-(4-((E)-2-((1R,5S,6s)-3-Azabicyclo[3.1.0]hexan-6-yl)vinyl)-2,6-difluorophenyl)-5-chloro-N-(2,2,2-trifluoroethyl)-[1,2,4]triazolo[1,5-a]pyrimidin-7-amine hydrochloride], in data set [1], the “Microtubule-Stabilizing Activity 50 nM” value worked out at 1.56 and the “Microtubule-Stabilizing Activity 500 nM” value turned out to be 3.12.
As for `CC(C)[C@@H](C)Nc1c(-c2c(F)cc(C#C[C@@H]3[C@H]4CN(C)C[C@@H]34)cc2F)c(Cl)nc2ncnn12` [Example 55, 5-Chloro-6-(2,6-difluoro-4-(((1R,5S,6s)-3-methyl-3-azabicyclo[3.1.0]hexan-6-yl)ethynyl)phenyl)-N—((R)-3-methylbutan-2-yl)-[1,2,4]triazolo[1,5-a]pyrimidin-7-amine], the “Microtubule-Stabilizing Activity 50 nM” value in data set [1] is reported as 1.8. Further, in data set [1], the “Microtubule-Stabilizing Activity 500 nM” value amounted to 1.62. For the same molecule, the Kp at 4 h in data set [2] (mouse, 4 h) was 1.22. In addition, the concentration at 4 h in data set [2] (setting [3]) was 375 ng/mL; in data set [2] (setting [4]), 306 ng/mL. Also, the AUC(0-t) in data set [2] (mouse, plasma, 0-4 h) was 1450 ng·h/mL. Also, the Cmax in data set [2] (mouse, plasma, read-out: Cmax) was found to be 496 ng/mL. Also, the Tmax in data set [2] (mouse, plasma, read-out: Tmax) was 30 min.
Turning to `C[C@@H](Nc1c(-c2c(F)cc(/C=C/[C@@H]3[C@H]4CN(C)C[C@@H]34)cc2F)c(Cl)nc2ncnn12)C1CCC1` [Example 56, 5-Chloro-N—((R)-1-cyclobutylethyl)-6-(2,6-difluoro-4-((E)-2-((1R,5S,6s)-3-methyl-3-azabicyclo[3.1.0]hexan-6-yl)vinyl)phenyl)-[1,2,4]triazolo[1,5-a]pyrimidin-7-amine], in data set [1], the “Microtubule-Stabilizing Activity 50 nM” value was 1.47 and the “Microtubule-Stabilizing Activity 500 nM” value came out at 1.69.
Turning to `Cc1nc2ncnn2c(N[C@H](C)C(C)C)c1-c1c(F)cc(OCC2[C@H]3CN(C)C[C@@H]23)cc1F` (stereo partly drawn) [Example 57, 6-(2,6-Difluoro-4-(((1R,5S,6r)-3-methyl-3-azabicyclo[3.1.0]hexan-6-yl)methoxy)phenyl)-5-methyl-N—((R)-3-methylbutan-2-yl)-[1,2,4]triazolo[1,5-a]pyrimidin-7-amine], in data set [1], the “Microtubule-Stabilizing Activity 500 nM” value amounted to 1.90. In addition, the Kp at 4 h in data set [2] (mouse, 4 h) stood at 0.96. Moreover, the concentration at 4 h turned out to be 102 ng/mL in data set [2] (setting [3]) and 106 ng/mL in data set [2] (setting [4]). Moreover, in data set [2] (mouse, plasma, 0-4 h), the AUC(0-t) stood at 525 ng·h/mL. Besides, the Cmax in data set [2] (mouse, plasma, read-out: Cmax) came out at 161 ng/mL. Further, the Tmax in data set [2] (mouse, plasma, read-out: Tmax) worked out at 30 min.
Turning to `CN1C[C@@H]2[C@@H](/C=C/c3cc(F)c(-c4c(Cl)nc5ncnn5c4NCC(F)(F)F)c(F)c3)[C@@H]2C1` [Example 58], in data set [1], the “Microtubule-Stabilizing Activity 50 nM” value stood at 1.09 and the “Microtubule-Stabilizing Activity 500 nM” value was 1.63. The Kp at 4 h in data set [2] (mouse, 4 h) was 3.58. The concentration at 4 h in data set [2] (setting [3]) was determined as 222 ng/mL. Moreover, the concentration at 4 h in data set [2] (setting [4]) is 62 ng/mL. In data set [2] (mouse, plasma, 0-4 h), the AUC(0-t) was found to be 368 ng·h/mL. Also, the Cmax in data set [2] (mouse, plasma, read-out: Cmax) came to 115 ng/mL. Also, the Tmax in data set [2] (mouse, plasma, read-out: Tmax) turned out to be 60 min.
`CC(C)[C@@H](C)Nc1c(-c2c(F)cc(/C=C/[C@@H]3[C@H]4CN(C)C[C@@H]34)cc2F)c(Cl)nc2ncnn12` [Example 59]: in data set [1], the “Microtubule-Stabilizing Activity 50 nM” value was 0.61 and the “Microtubule-Stabilizing Activity 500 nM” value turned out to be 1.87.
